Data from US12054509B2, “Antimicrobial compounds, compositions, and uses thereof” (Lakewood Amedex, Inc., priority 2017, dated 2024).
In brackets after ≈: the same amount, converted by molar mass.

Tests used:
Assay type in all cases: cell-based
E. coli ATCC 25922 = test: Bacterial cytological profiling (Example 6), E. coli;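 on cell wall deformations: tested at 1 0.5 and 0.25 times MIC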;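 on effect on cell envelope: tested at 1 0.5 and 0.25 times MIC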
Method: (§1) This bacterial cytological profiling (BCP) study uses methods and materials described previously by Nonejuie, P., Burkart, M., Poglianoa, K., Pogiano, J. (2013). Bacterial cytological profiling rapidly identifies the cellular pathways targeted by antibacterial molecules. Proc. Natl. Acad. Sci. U.S.A. 110(40):16169-16174. doi: 10.1073/pnas.1311066110.
(§2) Wild type strains of E. coli ATCC 25922 or P. aeruginosa K2732 are grown in rich media (unbuffered 2× Lysogeny broth [LB]) at 30 C to an OD600˜0.4. These cultures are then split and each sample treated with the appropriate concentration of Nu-8 in unbuffered or buffered LB (final mixture OD600˜0.1). Cells exposed without Nu-8 are buffered to pH 4 with phosphoric acid.
(§3) The BCP is performed in LB media buffered to pH 4. The minimum inhibitory concentration (MIC) is measured for Nu-3, Nu-4, Nu-5, and Nu-8 against each bacterial strain. As one of ordinary skill in the art understands, minimum inhibitory concentrations are the lowest concentration of an antimicrobial that will inhibit the visible growth of a microorganism after overnight incubation. […] Cellular viability is assayed at three time points (5 minutes and 4 and 24 h following the onset of treatment).
(§4) For imaging E. coli, treated cells are stained with 1 μg/Ml FM4-64, 2 μg/mL DAPI, and 0.5 μM SYTOXGreen (Molecular Probes/Invitrogen). P. aeruginosa samples are stained 0.5 μM SYTOX Green, 28 μg/mL DAPI, and 4.5 μg/mL FM 4-64. Cells are transferred to an agarose pad (20% LB, 1% agarose) for imaging as described in Pogliano, J., Osborne, N., Sharp, M. D., Abanes-De Mello, A., Perez, A., Sun, Y.-L. and Pogliano, K. (1999), A vital stain for studying membrane dynamics in bacteria: a novel mechanism controlling septation during Bacillus subtilis sporulation. Molecular Microbiology, 31: 1149-1159. doi:10.1046/j.1365-2958.1999.01255.x.

P. aeruginosa K2732 = test: Bacterial cytological profiling (Example 6), P. aeruginosa; conditions: BCP;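 further: tested at 1 0.5 and 0.25 times MIC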
Method: as §1, §2, §3, §4

[1] = system: wild type E. coli (ATCC 25922); test: Bacterial cytological profiling at pH 4, 5.5, 7 (Example 8), E. coli
Method: as §1, with “investigation” for “study”
(§5) For viable cell counts, cells are grown to OD600≈0.4 and diluted 1:1 into buffered or unbuffered media containing various compound concentrations. Samples are then collected and serially diluted (1:10) on a 96 well plate. Five microliters from each well are spotted on LB plates, incubated at 30° C., and viable cells are counted the next day.
(§6) Samples are collected at 10, 30, 120, and 240 min of exposure for viable cell count and imaging. For imaging, E. coli and S. aureus 200 μL of treated cells per time point are stained with 0.8 μg/mL FM4-64, 1.5 μg/mL DAPI, and 0.4 μM SYTOXGreen (Molecular Probes/Invitrogen). P. aeruginosa samples are stained 0.4 μM SYTOX Green, 28 μg/mL DAN, and 1 μg/mL FM 4-64. Cells are transferred to an agarose pad (20% LB, 1% agarose) for imaging.
(§7) For Nu-3 and Nu-8 stocks (at pH 4, 5.5 and 7), stock concentration is 500 mg/mL. For pH 4, the stocks are prepared by dissolving Nu-3 in 25 mM citrate buffer and Nu-8 in 350 mM citric acid. For pH 5.5, the stocks are prepared by dissolving Nu-3 in 25 mM citric-phosphate and Nu-8 in 25 mM critic. For pH 7, the stocks are prepared by dissolving Nu-3 and Nu-8 in 25 mM Sorensen phosphate buffer. 2×LB (lysogeny broth) solutions are prepared with 50 mM citrate buffer for pH 4, 50 mM citrate-phosphate buffer for pH 5.5, and 50 mM Sorensen phosphate buffer for pH 7.

[2] = system: wild type P. aeruginosa (PAO1; K2732); test: Bacterial cytological profiling at pH 4, 5.5, 7 (Example 8), P. aeruginosa; conditions: pH 5.5 and 7; 112.5 mg/mL
Method: as §1, with “investigation” for “study”
as §5, §6, §7

[3] = system: methicillin susceptible S. aureus (ATCC 29213); test: Bacterial cytological profiling at pH 4, 5.5, 7 (Example 8), S. aureus
Method: as §1, with “investigation” for “study”
as §5, §6, §7

Candida Albicans = test: MIC against a single isolate (Example 26); conditions: single isolate, read-out: C. albicans MIC
Method: (§8) Bacterial strains evaluated in this study include Escherichia coli, Klebsiella spp, Serratia marcescens, Proteus mirabilis/vulgaris, Citrobacter spp, Providencia spp, Morganella morganii, Pseudomonas aeruginosa, Staphylococcus aureus (MRSA only), and Enterococcus faecalis. Nu-8 test solutions are adjusted to pH 3.5 with citric acid, and MIC is evaluated per the CLSI methods in Mueller-Hinton broth supplemented accordingly to facilitate growth of specific strains.
(§9) MIC was determined as per Example 9 using LAI-101, LAI-102, Nu-10, LAI-105, LAI-106, Nu-3, and Nu-8 against a single isolate of Escherichia coli. Pseudomonas aeruginosa, Staphylococcus aureus (MRSA only), and Candida Albicans. For all microbe species, the LAI-101, LAI-102, Nu-10, LAI-105, and LAI-106 all perform at least as well as, and in many experiments better than, Nu-8 and Nu-3, which are both already quite active compounds.

Escherichia coli = test: MIC against a single isolate (Example 26); conditions: single isolate, read-out: E. coli MIC
Method: as §8, §9

Pseudomonas aeruginosa = test: MIC against a single isolate (Example 26); conditions: single isolate, read-out: P. aeruginosa MIC
Method: as §8, §9

[4] = system: Staphylococcus aureus (MRSA only); test: MIC against a single isolate (Example 26); conditions: single isolate, read-out: S. aureus MIC
Method: as §8, §9

E. coli (ATCC 25922) = test: Time kill assay in saline at pH 3.5 (Example 27); conditions: for Log10 CFU/mL: pH 3.5
Method: Log10 5 CFU of E. coli (ATCC 25922) were suspended in saline. Additionally, a sample of the saline only was prepared as a vehicle control (V.C.). Solutions of Nu-3, Nu-8, and Nu-10 at varying concentrations were adjusted to pH 3.5 with citric acid and added to the E. coli suspensions. At each time point (0, 1, 2.5, 5, 10, and 20 minutes), the treated bacterial suspensions were plated and incubated for 24 hrs, and each plate was read to determine the CFU count.
Tables 12-14 provide the time kill assay data for Nu-3 (Table 12), Nu-8 (Table 13) and Nu-10 (Table 14) against E. coli.

CCCCOP(=O)(O)OC[C@H]1O[C@@H](n2cc(C)c(=O)[nH]c2=O)C[C@@H]1OP(=O)(O)OCCCC [Nu-3, reference compound]
effect on cell envelope (E. coli ATCC 25922; BCP): affect the cell envelope | DNA condensation (E. coli ATCC 25922; higher treatment concentrations, buffered pH 4): causes DNA condensation | cell wall deformations (E. coli ATCC 25922; unbuffered LB): cause cell wall deformations | effect on cell envelope (P. aeruginosa K2732): affect the cell envelope | cell viability (cell growth delay) ([1]; pH 4, 112.5 mg/mL, up to 240 min): 10^7 CFR/mL | effect on cell permeability, viability and growth ([1]; pH 5.5 and 7): ineffective | cell growth [2]: no effect on cell growth | increase/change in cell permeability [2]: < 6% | cell growth ([3]; pH 4, 125 mg/mL): slight reduction in cell growth | cell permeability ([3]; pH 4, 125 mg/mL): < 10% | cell permeability ([3]; pH 4, 250 mg/mL): < 10% | cell growth ([3]; pH 5.5 and 7, 125 mg/mL and 250 mg/mL, up to 24 h): slightly reduce cell growth | MIC (Candida Albicans): 25 mg/mL (≈ 48.6 mM) | MIC (Escherichia coli): 25000 µg/mL (≈ 48.6 mM) | MIC (Pseudomonas aeruginosa): 25000 µg/mL (≈ 48.6 mM) | MIC [4]: > 50000 µg/mL | Log10 CFU/mL (E. coli (ATCC 25922); 2.5% solution, 0 min): 5.20 Log10 CFU/mL | Log10 CFU/mL (E. coli (ATCC 25922); 2.5% solution, 1 min): 3.38 Log10 CFU/mL | Log10 CFU/mL (E. coli (ATCC 25922); 2.5% solution, 2.5 min): 2.55 Log10 CFU/mL | Log10 CFU/mL (E. coli (ATCC 25922); 2.5% solution, 5 min): 1.99 Log10 CFU/mL | Log10 CFU/mL (E. coli (ATCC 25922); 2.5% solution, 10 min): 0.00 Log10 CFU/mL | Log10 CFU/mL (E. coli (ATCC 25922); 2.5% solution, 20 min): 0.00 Log10 CFU/mL | Log10 CFU/mL (E. coli (ATCC 25922); 5% solution, 0 min): 5.20 Log10 CFU/mL | Log10 CFU/mL (E. coli (ATCC 25922); 5% solution, 1 min): 3.00 Log10 CFU/mL | Log10 CFU/mL (E. coli (ATCC 25922); 5% solution, 2.5 min): 2.10 Log10 CFU/mL | Log10 CFU/mL (E. coli (ATCC 25922); 5% solution, 5 min): 0.00 Log10 CFU/mL | Log10 CFU/mL (E. coli (ATCC 25922); 5% solution, 10 min): 0.00 Log10 CFU/mL | Log10 CFU/mL (E. coli (ATCC 25922); 5% solution, 20 min): 0.00 Log10 CFU/mL | Log10 CFU/mL (E. coli (ATCC 25922); 10% solution, 0 min): 5.20 Log10 CFU/mL | Log10 CFU/mL (E. coli (ATCC 25922); 10% solution, 1 min): 2.85 Log10 CFU/mL | Log10 CFU/mL (E. coli (ATCC 25922); 10% solution, 2.5 min): 0.00 Log10 CFU/mL | Log10 CFU/mL (E. coli (ATCC 25922); 10% solution, 5 min): 0.00 Log10 CFU/mL | Log10 CFU/mL (E. coli (ATCC 25922); 10% solution, 10 min): 0.00 Log10 CFU/mL | Log10 CFU/mL (E. coli (ATCC 25922); 10% solution, 20 min): 0.00 Log10 CFU/mL | time to complete kill of the bacteria (E. coli (ATCC 25922); concentration of 10%): ≤ 2.5 min

CCCCOP(=O)(O)OC[C@H]1O[C@@H](n2ccc(N)nc2=O)[C@H](OC)[C@@H]1OP(=O)(O)OCCCC [Nu-10, ((2R,3R,4R,5R)-5-(4-amino-2-oxopyrimidin-1(2H)-yl)-3-((butoxy(hydroxy)phosphoryl)oxy)-4-methoxytetrahydrofuran-2-yl)methyl butyl hydrogen phosphate]
MIC (Candida Albicans): 5 mg/mL | MIC (Escherichia coli): 1000 µg/mL | MIC (Pseudomonas aeruginosa): 5000 µg/mL | MIC [4]: 5000 µg/mL | Log10 CFU/mL (E. coli (ATCC 25922); 0.1% solution, 0 min): 5.20 Log10 CFU/mL | Log10 CFU/mL (E. coli (ATCC 25922); 0.1% solution, 1 min): 3.78 Log10 CFU/mL | Log10 CFU/mL (E. coli (ATCC 25922); 0.1% solution, 2.5 min): 3.38 Log10 CFU/mL | Log10 CFU/mL (E. coli (ATCC 25922); 0.1% solution, 5 min): 2.57 Log10 CFU/mL | Log10 CFU/mL (E. coli (ATCC 25922); 0.1% solution, 10 min): 0.00 Log10 CFU/mL | Log10 CFU/mL (E. coli (ATCC 25922); 0.1% solution, 20 min): 0.00 Log10 CFU/mL | Log10 CFU/mL (E. coli (ATCC 25922); 0.5% solution, 0 min): 5.20 Log10 CFU/mL | Log10 CFU/mL (E. coli (ATCC 25922); 0.5% solution, 1 min): 2.51 Log10 CFU/mL | Log10 CFU/mL (E. coli (ATCC 25922); 0.5% solution, 2.5 min): 0.00 Log10 CFU/mL | Log10 CFU/mL (E. coli (ATCC 25922); 0.5% solution, 5 min): 0.00 Log10 CFU/mL | Log10 CFU/mL (E. coli (ATCC 25922); 0.5% solution, 10 min): 0.00 Log10 CFU/mL | Log10 CFU/mL (E. coli (ATCC 25922); 0.5% solution, 20 min): 0.00 Log10 CFU/mL | Log10 CFU/mL (E. coli (ATCC 25922); 2.5% solution, 0 min): 5.20 Log10 CFU/mL | Log10 CFU/mL (E. coli (ATCC 25922); 2.5% solution, 1 min): 0.00 Log10 CFU/mL | Log10 CFU/mL (E. coli (ATCC 25922); 2.5% solution, 2.5 min): 0.00 Log10 CFU/mL | Log10 CFU/mL (E. coli (ATCC 25922); 2.5% solution, 5 min): 0.00 Log10 CFU/mL | Log10 CFU/mL (E. coli (ATCC 25922); 2.5% solution, 10 min): 0.00 Log10 CFU/mL | Log10 CFU/mL (E. coli (ATCC 25922); 2.5% solution, 20 min): 0.00 Log10 CFU/mL | time to complete kill of the bacteria (E. coli (ATCC 25922); concentration of 2.5%): ≤ 1 min

CCCCOP(=O)(O)OC[C@H]1O[C@@H](n2cnc3c(N)ncnc32)[C@H](OC)[C@@H]1OP(=O)(O)OCCCC [LAI-106, ((2R,3R,4R,5R)-5-(6-amino-9H-purin-9-yl)-3-((butoxy(hydroxy)phosphoryl)oxy)-4-methoxytetrahydrofuran-2-yl)methyl butyl hydrogen phosphate]
MIC (Candida Albicans): 25 mg/mL | MIC (Escherichia coli): 1000 µg/mL | MIC (Pseudomonas aeruginosa): 5000 µg/mL | MIC [4]: 5000 µg/mL
